Assays:
S. aureus BH1CC (MRSA) = settings: strain isolated from Beaumont hospital; cited from earlier work
E. coli ATCC 25922 [1] = format: cell-based
Description: In an attempt to induce a tolerance to an antimicrobial, the micro-broth dilution method was utilised, with repeated passaging, with E. coli ATCC 25922 and a number of antibiotics, as well as the composition of the invention containing hydrogen peroxide and potassium iodide. […] Doubling dilutions of antimicrobial compositions were made using a 96 well plate. The well contents were inoculated with 10^4 cfu ml^−1 E. coli ATCC 25922 and allowed to incubate.

E. coli ATCC 25922 [2] = test: MIC of iodine based antimicrobials in absence and presence of organic material; format: cell-based
Text: As a comparison, PVP-1 or povidone iodine, used frequently in hospital setting as a topical antiseptic, was used as a source of free iodine (12).

Q: With `Cc1onc(-c2ccccc2)c1C(=O)N[C@@H]1C(=O)N2[C@@H]1SC(C)(C)[C@@H]2C(=O)O` [oxacillin] as the compound, how does the “oxacillin MIC” value (S. aureus BH1CC (MRSA)) read?
A: Its value is over 256 µg/mL.

Q: With polymyxin B as the compound, how does the “resistance of the organism after passaging in presence of the antibiotic” value (E. coli ATCC 25922 [1]; after only 8 passages) read?
A: The value was “completely resistant”.

Q: With `C[C@H]1COc2c(N3CCN(C)CC3)c(F)cc3c(=O)c(C(=O)O)cn1c23` [levofloxacin] as the compound, how does the “increase in tolerance versus pre-passaging” value (E. coli ATCC 25922 [1]; after 10 passages) read?
A: The value was 8 times.

Q: With `OO` [Example H2O2, hydrogen peroxide] as the compound, how does the “MIC” value (E. coli ATCC 25922 [2]; broth) read?
A: Its value is 20 to 40 µg/mL.

Q: For “polyvinylpyrrilidone, PVP-I, also known as povidone-iodine”, which “MIC” value (E. coli ATCC 25922 [2]; in LB) is on record?
A: The value was over 250 µg/mL.

Q: What about the “MIC” value (E. coli ATCC 25922 [2]; milk) of the same compound?
A: Its value is over 250 µg/mL.

Q: What about the “MIC” value (E. coli ATCC 25922 [2]; saline) of the same compound?
A: The value was 1 to 2 µg/mL.
